Experimental data as given in patent US20050249674A1, “Aerosol composition” (University College Cardiff Consultants Limited, priority 1998, published 2005).

Test: visual assessment of suspension: ease of dispersion on hand held shaking, extent of aggregation, suspension quality
Type: physicochemical
Conditions: in HFA-134a or HFA-227
Description: Each suspension was assessed visually for its ease of dispersion on hand held shaking, its extent of aggregation and the quality of the suspension.
Ease of dispersion was scored on a scale of good (g), medium (m) and poor (p).
The extent of aggregation was scored on a scale of low, medium and high. Additionally the type of aggregation, if present, was recorded.
The quality of the suspension was scored on a scale of poor (p), poor-fair (p/f), fair (f), fair-good (f/g) and good (g).
The suspension properties measured by visual inspection were ease of dispersion, extent of aggregation and suspension quality and were scored as for Examples A to Q.
The resulting suspensions were assessed visually for ease of dispersion, suspension quality and extent of aggregation and scored as above, as set out under Examples A to R. The results are given in Table IV below.
The suspensions so formed were assessed visually for ease of dispersion and suspension quality and each assessment was scored on a scale of poor (p), poor-fair (p/f), fair (f), fair-good (f/g), good (g).
The extent of aggregation of each suspension was also assessed visually and in each example was rated as low.

tendency to cream or sediment in the propellant	SMILES
tendency to sediment	OC[C@H]1OC(O)[C@H](O)[C@@H](O)[C@@H]1O (stereo partly drawn) [Glucose, d-glucose anhydrous]
tendency to cream	CC(C)C[C@H](N)C(=O)O [Leucine, L-leucine]
